Experiments:
prostate line LNCap = test: In vitro cell culture growth assay (MTS), LNCap; format: cell-based, human; settings: LNCap cells, three days after drug treatment;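 also: viable cell density read by absorbance at 490 nm, growth expressed as percent of vehicle-treated cells on the same plate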
breast line MDA468 = test: In vitro cell culture growth assay (MTS), MDA468; format: cell-based, human; settings: MDA468 cells, three days after drug treatment
Method in brief: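 Steps: plate cells; add inhibitors the next day; incubate 3 days; add MTS dye, which viable cells convert metabolically; measure absorbance at 490 nm; calculate percent of control growth relative to vehicle-treated cells in the same plate.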

PI3K = PI3K (Homo sapiens, UniProt P42336); test: Fluorescence polarization assay for PI3K; format: biochemical; settings: PI3Kα; read-out: PI3Kα IC50;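 also: PI3K kinase reaction on PIP2 with ATP, 30-60 min, product sensed by GST-GRP with red probe in fluorescence polarization (mP), controls without enzyme and at zero time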
Chain of PI3K (P42336 whole entry): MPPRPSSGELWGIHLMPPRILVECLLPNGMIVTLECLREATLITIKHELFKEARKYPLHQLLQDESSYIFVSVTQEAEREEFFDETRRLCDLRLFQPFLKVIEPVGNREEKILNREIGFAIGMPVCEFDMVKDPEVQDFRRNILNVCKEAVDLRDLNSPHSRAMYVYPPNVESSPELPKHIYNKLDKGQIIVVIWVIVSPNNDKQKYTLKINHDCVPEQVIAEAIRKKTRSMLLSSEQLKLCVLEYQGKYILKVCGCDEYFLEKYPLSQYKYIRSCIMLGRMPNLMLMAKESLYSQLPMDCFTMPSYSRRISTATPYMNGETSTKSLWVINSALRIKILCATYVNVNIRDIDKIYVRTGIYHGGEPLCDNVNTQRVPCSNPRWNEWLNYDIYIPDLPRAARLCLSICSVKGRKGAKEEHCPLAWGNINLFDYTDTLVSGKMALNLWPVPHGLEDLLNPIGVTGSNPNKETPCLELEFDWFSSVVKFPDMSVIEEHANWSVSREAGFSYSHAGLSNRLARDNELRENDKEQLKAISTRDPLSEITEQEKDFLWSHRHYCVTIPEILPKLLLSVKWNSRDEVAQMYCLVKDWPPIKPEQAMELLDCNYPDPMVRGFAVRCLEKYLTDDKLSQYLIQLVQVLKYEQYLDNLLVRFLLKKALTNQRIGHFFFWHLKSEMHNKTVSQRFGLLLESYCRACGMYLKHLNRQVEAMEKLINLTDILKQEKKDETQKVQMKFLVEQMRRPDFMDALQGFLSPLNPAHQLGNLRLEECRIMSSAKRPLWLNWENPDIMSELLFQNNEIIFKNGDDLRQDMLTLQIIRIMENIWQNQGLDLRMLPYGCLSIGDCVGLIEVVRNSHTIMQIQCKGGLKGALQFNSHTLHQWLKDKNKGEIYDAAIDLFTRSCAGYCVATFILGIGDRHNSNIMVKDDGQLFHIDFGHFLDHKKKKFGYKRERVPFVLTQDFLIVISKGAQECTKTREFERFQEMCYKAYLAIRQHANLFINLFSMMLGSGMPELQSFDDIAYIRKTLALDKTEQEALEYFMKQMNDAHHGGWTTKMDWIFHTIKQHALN
Chain of PI3K (P27986 whole entry partner): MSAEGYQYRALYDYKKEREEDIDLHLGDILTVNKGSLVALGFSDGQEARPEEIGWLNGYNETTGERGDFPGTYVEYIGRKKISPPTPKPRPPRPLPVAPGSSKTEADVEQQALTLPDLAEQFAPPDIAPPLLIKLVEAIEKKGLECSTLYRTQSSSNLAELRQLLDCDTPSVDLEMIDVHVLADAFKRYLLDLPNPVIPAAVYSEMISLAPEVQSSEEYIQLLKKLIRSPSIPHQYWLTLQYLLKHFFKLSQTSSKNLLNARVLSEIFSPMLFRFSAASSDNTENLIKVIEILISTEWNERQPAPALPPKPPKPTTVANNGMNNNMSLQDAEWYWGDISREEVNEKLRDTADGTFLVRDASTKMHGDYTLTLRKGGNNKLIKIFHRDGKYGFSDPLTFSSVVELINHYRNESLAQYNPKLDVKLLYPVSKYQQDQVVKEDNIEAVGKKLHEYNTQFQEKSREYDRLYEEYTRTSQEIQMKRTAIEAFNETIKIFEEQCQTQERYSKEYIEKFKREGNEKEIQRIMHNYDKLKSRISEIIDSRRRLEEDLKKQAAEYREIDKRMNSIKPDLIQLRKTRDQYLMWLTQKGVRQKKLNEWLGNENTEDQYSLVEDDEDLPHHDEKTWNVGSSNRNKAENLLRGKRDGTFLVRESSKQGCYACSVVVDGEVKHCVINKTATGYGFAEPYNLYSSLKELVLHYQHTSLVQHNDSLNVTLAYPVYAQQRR

Compound	IC50 (prostate line LNCap; Homo sapiens, LNCaP, 72 h)	IC50 (breast line MDA468; Homo sapiens, 72 h)	IC50 (PI3K)	IC50 (prostate line LNCap)	IC50 (breast line MDA468)
c1cc2cc(-c3nc(N4CCOCC4)c4cnn(CCN5CCNCC5)c4n3)ccc2[nH]1 [Compound 162, 6-(1H-indol-5-yl)-4-morpholin-4-yl-1-(2-piperazin-1-ylethyl)-1H-pyrazolo[3,4-d]pyrimidine]	33000 nM	60000 nM	1850 nM	–	–
CNC(=O)Nc1ccc(-c2nc(N3CCOCC3)c3cnn(C4CCN(Cc5ccc(F)cc5)CC4)c3n2)cc1 [Compound 671, 1-(4-{1-[1-(4-fluorobenzyl)piperidin-4-yl]-4-morpholin-4-yl-1H-pyrazolo[3,4-d]pyrimidin-6-yl}phenyl)-3-methylurea]	–	–	34 nM	< 27 nM	210 nM
COC(=O)Nc1ccc(-c2nc(N3CCOCC3)c3cnn(C4CCN(C(=O)c5ccccc5F)CC4)c3n2)cc1 [Example 443, methyl (4-{1-[1-(2-fluorobenzoyl)piperidin-4-yl]-4-morpholin-4-yl-1H-pyrazolo[3,4-d]pyrimidin-6-yl}phenyl)carbamate]	250 nM	500 nM	1140 nM	–	–
CNC(=O)Nc1ccc(-c2nc(N3CCOCC3)c3cnn(C4CCN(C(=O)c5cccc(F)c5)CC4)c3n2)cc1 [Compound 603, 1-(4-{1-[1-(3-fluorobenzoyl)piperidin-4-yl]-4-morpholin-4-yl-1H-pyrazolo[3,4-d]pyrimidin-6-yl}phenyl)-3-methylurea]	< 27 nM	80 nM	88 nM	–	–
c1ccc(CN2CCC(n3ncc4c(N5CCOCC5)nc(-c5cnc6ccccc6c5)nc43)CC2)cc1 [Compound 484, 3-[1-(1-benzylpiperidin-4-yl)-4-morpholin-4-yl-1H-pyrazolo[3,4-d]pyrimidin-6-yl]quinoline]	> 60000 nM	22000 nM	6000 nM	–	–
NNC(=O)Nc1ccc(-c2nc(N3CCOCC3)c3cnn(C4CCN(C(=O)c5cccnc5)CC4)c3n2)cc1 [Compound 551, N-(4-{4-morpholin-4-yl-1-[1-(pyridin-3-ylcarbonyl)piperidin-4-yl]-1H-pyrazolo[3,4-d]pyrimidin-6-yl}phenyl)hydrazinecarboxamide]	10000 nM	14000 nM	398 nM	–	–
CNC(=O)Nc1ccc(-c2nc(N3CCOCC3)c3cnn(C4CCN(C(=O)c5cccc(C)c5)CC4)c3n2)cc1 [Compound 612, 1-methyl-3-(4-{1-[1-(3-methylbenzoyl)piperidin-4-yl]-4-morpholin-4-yl-1H-pyrazolo[3,4-d]pyrimidin-6-yl}phenyl)urea]	< 27 nM	27 nM	72 nM	–	–
CC(=O)NCc1ccc(-c2nc(N3CCOCC3)c3cnn(-c4ccccc4)c3n2)cc1 [Compound 147]	5600 nM	22000 nM	350 nM	–	–
C=CC(=O)Nc1ccc(-c2nc(N3CCOCC3)c3cnn(C4CCN(C(=O)C(C)C)CC4)c3n2)cc1 [Compound 947, N-{4-[1-(1-isobutyrylpiperidin-4-yl)-4-morpholin-4-yl-1H-pyrazolo[3,4-d]pyrimidin-6-yl]phenyl}acrylamide]	980 nM	4800 nM	1600 nM	–	–
CNC(=O)Nc1ccc(-c2nc(N3CCOCC3)c3cnn(C4CCN(C(=O)c5ccc(Br)cc5)CC4)c3n2)cc1 [Example 360, 1-(4-{1-[1-(4-bromobenzoyl)piperidin-4-yl]-4-morpholin-4-yl-1H-pyrazolo[3,4-d]pyrimidin-6-yl}phenyl)-3-methylurea]	52 nM	200 nM	35 nM	–	–
O=C(Nc1ccc(-c2nc(N3CCOCC3)c3cnn(C4CCNCC4)c3n2)cc1)Nc1cccnc1 [Compound 779, 1-[4-(4-morpholin-4-yl-1-piperidin-4-yl-1H-pyrazolo[3,4-d]pyrimidin-6-yl)phenyl]-3-pyridin-3-ylurea]	2800 nM	900 nM	26 nM	–	–
O=C(NCCO)Nc1ccc(-c2nc(N3CCOCC3)c3cnn(CC(F)(F)F)c3n2)cc1 [Compound 791, 1-(2-hydroxyethyl)-3-{4-[4-morpholin-4-yl-1-(2,2,2-trifluoroethyl)-1H-pyrazolo[3,4-d]pyrimidin-6-yl]phenyl}urea]	220 nM	260 nM	136 nM	–	–

Source: patent US20080234262A1 (Wyeth, priority 2007, published 2008)
